Reference: the supplement of paper PMC4862054

Assays:
Conditions in all cases: incubation time: 72 h
[1] = test system: BT-549; test: normalised response (% of control), CellTiter-Glo; higher = more viable cells (100 = DMSO, 0 = benzethonium chloride kill control)
Description: (§1)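 DSRT, 72 h incubation, CellTox Green / CellTiter-Glo readout. Signal is normalised to DMSO and benzethonium chloride controls. Value is the normalised response at the highest dose.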

[2] = test system: DU-4475; test: as above
Description: as §1

[3] = test system: CAL-51; test: as above
Description: as §1

[4] = test system: CAL-148; test: as above
Description: as §1

[5] = test system: HDQ-P1; test: as above
Description: as §1

[6] = test system: CAL-85-1; test: as above
Description: as §1

[7] = test system: Hs578T; test: as above
Description: as §1

[8] = test system: MDA-MB-436; test: as above
Description: as §1

[9] = test system: BT-474; test: as above
Description: as §1

[10] = test system: MDA-MB-468; test: as above
Description: as §1

[11] = test system: MDA-MB-231; test: as above
Description: as §1

[12] = test system: MCF-10A; test: as above
Description: as §1

[13] = test system: HCC1599; test: as above
Description: as §1

[14] = test system: SK-BR-3; test: as above
Description: as §1

[15] = test system: HCC1937; test: as above
Description: as §1

[16] = test system: MDA-MB-453; test: as above
Description: as §1

[17] = test system: MFM-223; test: as above
Description: as §1

[18] = test system: CAL-120; test: as above
Description: as §1

[19] = test system: HCC1143; test: as above
Description: as §1

[20] = test system: BT-549; test: normalised response (% of control), CellTox Green; higher = less cell death (100 = DMSO, 0 = benzethonium chloride kill control)
Outline: (§2)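 CellTox Green fluorescence (485/520 nm) and, after 10 min at room temperature, CellTiter-Glo luminescence were read from breast cancer cell lines incubated 72 h in 384-well plates. Cells were seeded as 20 µl suspension onto compound at 5 concentrations in 10-fold steps over a 10,000-fold range chosen per compound. Each plate was normalised to 0.1 % DMSO (100) and a positive kill control (0). Values are normalised signals, one per concentration.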

[21] = test system: DU-4475; test: as above
Outline: as §2

[22] = test system: CAL-51; test: as above
Outline: as §2

[23] = test system: CAL-148; test: as above
Outline: as §2

[24] = test system: HDQ-P1; test: as above
Outline: as §2

[25] = test system: CAL-85-1; test: as above
Outline: as §2

[26] = test system: Hs578T; test: as above
Outline: as §2

[27] = test system: MDA-MB-436; test: as above
Outline: as §2

[28] = test system: BT-474; test: as above
Outline: as §2

[29] = test system: MDA-MB-468; test: as above
Outline: as §2

[30] = test system: MDA-MB-231; test: as above
Outline: as §2

[31] = test system: MCF-10A; test: as above
Outline: as §2

[32] = test system: HCC1599; test: as above
Outline: as §2

[33] = test system: HCC1937; test: as above
Outline: as §2

[34] = test system: MDA-MB-453; test: as above
Outline: as §2

[35] = test system: MFM-223; test: as above
Outline: as §2

[36] = test system: CAL-120; test: as above
Outline: as §2

[37] = test system: HCC1143; test: as above
Outline: as §2

Row | SMILES | normalised response [1] | normalised response [2] | normalised response [3] | normalised response [4] | normalised response [5] | normalised response [6] | normalised response [7] | normalised response [8] | normalised response [9] | normalised response [10] | normalised response [11] | normalised response [12] | normalised response [13] | normalised response [14] | normalised response [15] | normalised response [16] | normalised response [17] | normalised response [18] | normalised response [19] | normalised response [20] | normalised response [21] | normalised response [22] | normalised response [23] | normalised response [24] | normalised response [25] | normalised response [26] | normalised response [27] | normalised response [28] | normalised response [29] | normalised response [30] | normalised response [31] | normalised response [32] | normalised response [33] | normalised response [34] | normalised response [35] | normalised response [36] | normalised response [37]
1 | O=C(O)CCCCC(CCSCc1ccccc1)SCc1ccccc1 (stereo not given) [CPI-613] (10000 nM) | 96.5% | 100% | 97.5% | 105% | 106% | 97.5% | 99.2% | 98.2% | 98.9% | 98.2% | 93.6% | 103% | 101% | 106% | 108% | 105% | 102% | 104% | 100% | 80.4% | 98.8% | 103% | 99.7% | 104% | 88.7% | 94.3% | 91.2% | 94.8% | 131% | 90.9% | 104% | 102% | 80.9% | 104% | 97.6% | 98.6% | 92.7%
2 | COc1cc2nccc(Oc3ccc(NC(=O)Nc4cc(C)on4)c(Cl)c3)c2cc1OC [Tivozanib] (10000 nM) | 64.2% | 91.9% | 70.7% | 77.6% | 62.2% | 76.6% | 63.8% | 79.6% | 50.3% | 52.2% | 46% | 42.7% | 77.2% | 70.8% | 61.6% | 64.3% | 34.3% | 50.6% | 86.2% | 126% | 98% | 25% | 78.1% | 93.9% | 100% | 21.6% | 104% | 85.2% | 134% | 77.7% | 91.7% | 102% | 111% | 104% | 93.8% | 89.6% | 110%
3 | CC[C@@H]1C(=O)N(C)c2cnc(Nc3ccc(C(=O)NC4CCN(C)CC4)cc3OC)nc2N1C1CCCC1 [BI 2536] (1000 nM) | 28.3% | 75.6% | 31.7% | 79.9% | 66.6% | 44.7% | 24.2% | 73.8% | 75.9% | 42.3% | 72.4% | 44.4% | 26.5% | 26.9% | 74.7% | 58.9% | 55.6% | 52.5% | 39.3% | 90.3% | 95.1% | 32% | 70.4% | 93% | 43.9% | 29.2% | 102% | 97.5% | 98.3% | 101% | 100% | 92.2% | 109% | 101% | 90.7% | 79.6% | 113%
4 | Nc1ncn([C@H]2C[C@H](O)[C@@H](CO)O2)c(=O)n1 [Decitabine] (10000 nM) | 75.2% | 86.2% | 82.3% | 82.6% | 87.8% | 84.5% | 89.4% | 88.7% | 87.4% | 31.5% | 93% | 83.8% | 94.1% | 77.7% | 74.9% | 97.7% | 93.3% | 83.9% | 83.6% | 130% | 104% | 65.7% | 95.5% | 110% | 70% | 123% | 73.2% | 94% | 90% | 126% | 92.6% | 113% | 113% | 103% | 90.5% | 103% | 117%
5 | COc1cc2c(Oc3ccc4[nH]c(C)cc4c3F)ncnc2cc1OCCCN1CCCC1 [Cediranib] (1000 nM) | 83.6% | 95.5% | 128% | 110% | 80.8% | 100% | 84.7% | 100% | 104% | 90.8% | 105% | 70.5% | 92.8% | 106% | 91.7% | 103% | 56.6% | 90.4% | 99.8% | 97.4% | 103% | 96.8% | 101% | 102% | 78.4% | 127% | 94.6% | 95.7% | 153% | 117% | 91.5% | 112% | 114% | 105% | 91.4% | 88.1% | 123%
